This passage reports EC50 results from US7192924B2, “Corticotropin releasing factor 2 receptor agonists” (priority 2002, dated 2007).

Ends that are not written are not given here. Peptide text beside a SMILES is read from it. A value given as a limit tells only on which side of the number the result lay.

Test [1] concerns the target T1, CRF2R (Homo sapiens, UniProt Q13324).
T1 sequence (Q13324 1-411): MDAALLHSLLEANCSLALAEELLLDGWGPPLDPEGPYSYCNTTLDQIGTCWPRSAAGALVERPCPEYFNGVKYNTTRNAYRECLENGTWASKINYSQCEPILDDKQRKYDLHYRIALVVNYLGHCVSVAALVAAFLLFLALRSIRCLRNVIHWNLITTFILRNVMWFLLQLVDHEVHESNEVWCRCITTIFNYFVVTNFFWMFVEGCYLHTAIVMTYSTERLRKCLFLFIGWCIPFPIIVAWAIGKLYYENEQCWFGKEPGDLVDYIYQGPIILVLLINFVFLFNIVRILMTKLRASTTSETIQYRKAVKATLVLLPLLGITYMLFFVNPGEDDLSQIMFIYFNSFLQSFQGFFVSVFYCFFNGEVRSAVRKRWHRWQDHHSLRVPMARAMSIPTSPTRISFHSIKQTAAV
Put plainly: CRF2R agonist activity (EC50, Emax), called comparative CRF binding. The test is classed as cell-based. Particulars: read-out: CRF2R EC50. A digest of the protocol:
(§1)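 Single-subtype CRFR cells, peptide vs vehicle, cAMP via CRE-reporter or lysate assay; background from other CRFR type subtracted if present.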

For test [2], the target named is T2, CRF1R (Homo sapiens, UniProt P34998).
T2 sequence (P34998 24-415): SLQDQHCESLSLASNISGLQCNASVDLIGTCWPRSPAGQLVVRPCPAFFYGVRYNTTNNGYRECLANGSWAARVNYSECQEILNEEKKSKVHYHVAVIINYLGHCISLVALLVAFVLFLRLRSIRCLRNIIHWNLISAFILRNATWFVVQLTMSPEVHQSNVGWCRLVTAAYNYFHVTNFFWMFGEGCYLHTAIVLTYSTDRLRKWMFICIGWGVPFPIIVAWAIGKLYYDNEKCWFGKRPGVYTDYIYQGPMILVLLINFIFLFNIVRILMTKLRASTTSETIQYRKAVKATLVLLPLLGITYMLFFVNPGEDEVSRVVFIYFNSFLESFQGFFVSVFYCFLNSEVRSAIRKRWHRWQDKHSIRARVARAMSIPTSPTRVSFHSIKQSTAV
Put plainly: CRF1R agonist activity (EC50, Emax), called comparative CRF binding. Particulars: read-out: CRF1R EC50. The test is classed as cell-based. A digest of the protocol:
as §1

One may read the EC50 as the concentration needed to bring the measured effect to its halfway point. As for `CC[C@H](C)[C@H](NC(=O)[C@H](C)NC(=O)[C@H](CC(N)=O)NC(=O)[C@H](CCC(N)=O)NC(=O)[C@H](CCC(=O)O)NC(=O)[C@H](C)NC(=O)[C@H](CCCNC(=N)N)NC(=O)[C@H](CCC(=O)O)NC(=O)[C@H](CCCNC(=N)N)NC(=O)[C@H](CCC(N)=O)NC(=O)[C@H](CO)NC(=O)[C@H](CCC(N)=O)NC(=O)[C@@H](NC(=O)[C@H](CCCCN)NC(=O)[C@H](CCC(=O)O)NC(=O)[C@H](CC(C)C)NC(=O)[C@H](CCC(=O)O)NC(=O)[C@H](CC(C)C)NC(=O)[C@H](CC(C)C)NC(=O)[C@@H](NC(=O)[C@H](CCCNC(=N)N)NC(=O)[C@H](CC(C)C)NC(=O)[C@H](CC(C)C)NC(=O)[C@H](CC(C)C)NC(=O)[C@H](CC(C)C)NC(=O)[C@@H]1CCCN1C(=O)[C@H](CC(C)C)NC(=O)[C@H](CC(=O)O)NC(=O)[C@@H](NC(=O)[C@H](CO)NC(=O)[C@H](CC(C)C)NC(=O)[C@H](CO)NC(=O)[C@@H]1CCCN1C(=O)[C@H](CC(N)=O)NC(=O)[C@@H](N)CC(=O)O)[C@@H](C)CC)[C@@H](C)O)[C@@H](C)O)C(=O)N[C@H](C(=O)N[C@@H](Cc1ccccc1)C(=O)N[C@@H](C)C(=O)N[C@@H](CO)C(=O)N[C@H](C(N)=O)C(C)C)[C@@H](C)CC` [compound 347] (H-DNPSLSIDLPLLLLRTLLELEKTQSQRERAEQNAIIFASV-NH2), the EC50 is 22.4 nM in test [1] and no less than 1000 nM in test [2].

Take `CC[C@H](C)[C@H](N)C(=O)N[C@H](C(=O)N[C@@H](CC(C)C)C(=O)N[C@@H](CO)C(=O)N[C@@H](CC(C)C)C(=O)N[C@@H](CC(=O)O)C(=O)N[C@H](C(=O)N1CCC[C@H]1C(=O)N[C@H](C(=O)NCC(=O)N[C@@H](CC(C)C)C(=O)N[C@@H](CC(C)C)C(=O)N[C@@H](CCC(N)=O)C(=O)N[C@H](C(=O)N[C@@H](CC(C)C)C(=O)N[C@@H](CC(C)C)C(=O)N[C@@H](CCC(=O)O)C(=O)N[C@@H](CCC(N)=O)C(=O)N[C@@H](C)C(=O)N[C@@H](CCCNC(=N)N)C(=O)N[C@@H](C)C(=O)N[C@@H](CCCNC(=N)N)C(=O)N[C@@H](C)C(=O)N[C@@H](C)C(=O)N[C@@H](CCCNC(=N)N)C(=O)N[C@@H](CCC(=O)O)C(=O)N[C@@H](CCC(N)=O)C(=O)N[C@@H](C)C(=O)N[C@H](C(=O)N[C@H](C(=O)N[C@@H](CC(N)=O)C(=O)N[C@@H](C)C(=O)N[C@@H](CCCNC(=N)N)C(=O)N[C@H](C(=O)N[C@@H](CC(C)C)C(=O)N[C@@H](C)C(=O)N[C@@H](CCCNC(=N)N)C(=O)N[C@H](C(=O)N[C@@H](CCSC)C(N)=O)C(C)C)[C@@H](C)CC)[C@@H](C)O)[C@@H](C)O)[C@@H](C)CC)[C@@H](C)CC)C(C)C)C(C)C` [compound 368] (H-IVLSLDVPIGLLQILLEQARARAAREQATTNARILARVM-NH2): the results for the EC50 in test [1] and in test [2] were 50.4 nM and no less than 1000 nM, respectively.

In the case of `CC[C@H](C)[C@H](N)C(=O)N[C@H](C(=O)N[C@@H](CC(C)C)C(=O)N[C@@H](CO)C(=O)N[C@@H](CC(C)C)C(=O)N[C@@H](CC(=O)O)C(=O)N[C@H](C(=O)N1CCC[C@H]1C(=O)N[C@H](C(=O)N[C@@H](Cc1c[nH]cn1)C(=O)N[C@@H](CC(C)C)C(=O)N[C@@H](CC(C)C)C(=O)N[C@@H](CCC(N)=O)C(=O)N[C@H](C(=O)N[C@@H](CC(C)C)C(=O)N[C@@H](CC(C)C)C(=O)N[C@@H](CCC(=O)O)C(=O)N[C@@H](CCC(N)=O)C(=O)N[C@@H](C)C(=O)N[C@@H](CCCNC(=N)N)C(=O)N[C@@H](C)C(=O)N[C@@H](CCCNC(=N)N)C(=O)N[C@@H](C)C(=O)N[C@@H](C)C(=O)N[C@@H](CCCNC(=N)N)C(=O)N[C@@H](CCC(=O)O)C(=O)N[C@@H](CCC(N)=O)C(=O)N[C@@H](C)C(=O)N[C@H](C(=O)N[C@H](C(=O)N[C@@H](CC(N)=O)C(=O)N[C@@H](C)C(=O)N[C@@H](CCCNC(=N)N)C(=O)N[C@H](C(=O)N[C@@H](CC(C)C)C(=O)N[C@@H](C)C(=O)N[C@@H](CCCNC(=N)N)C(=O)N[C@H](C(N)=O)C(C)C)[C@@H](C)CC)[C@@H](C)O)[C@@H](C)O)[C@@H](C)CC)[C@@H](C)CC)C(C)C)C(C)C` [compound 371] (H-IVLSLDVPIHLLQILLEQARARAAREQATTNARILARV-NH2; N-terminus assumed), the concentration giving a half-maximal response (EC50) in test [1] is 6.62 nM; in test [2], no less than 1000 nM.

`CC[C@H](C)[C@H](NC(=O)[C@H](CCCNC(=N)N)NC(=O)[C@H](C)NC(=O)[C@H](CC(N)=O)NC(=O)[C@H](CCC(N)=O)NC(=O)[C@H](CCC(=O)O)NC(=O)[C@H](C)NC(=O)[C@H](CCCNC(=N)N)NC(=O)[C@H](CCC(=O)O)NC(=O)[C@H](CCCNC(=N)N)NC(=O)[C@H](CCC(N)=O)NC(=O)[C@H](CO)NC(=O)[C@H](CCC(N)=O)NC(=O)[C@@H](NC(=O)[C@H](CCCCN)NC(=O)[C@H](CCC(=O)O)NC(=O)[C@H](CC(C)C)NC(=O)[C@H](CCC(=O)O)NC(=O)[C@H](CC(C)C)NC(=O)[C@H](CC(C)C)NC(=O)[C@@H](NC(=O)[C@H](CCCNC(=N)N)NC(=O)[C@H](CC(C)C)NC(=O)[C@H](CC(C)C)NC(=O)[C@H](CC(C)C)NC(=O)[C@H](CC(C)C)NC(=O)[C@@H]1CCCN1C(=O)[C@@H](NC(=O)[C@H](CC(=O)O)NC(=O)[C@@H](NC(=O)[C@H](CO)NC(=O)[C@H](CC(C)C)NC(=O)[C@H](CO)NC(=O)[C@@H]1CCCN1C(=O)[C@H](CC(N)=O)NC(=O)[C@@H](N)CC(=O)O)[C@@H](C)CC)C(C)C)[C@@H](C)O)[C@@H](C)O)C(=O)N[C@@H](Cc1ccccc1)C(=O)N[C@@H](C)C(=O)N[C@@H](CCCNC(=N)N)C(=O)N[C@H](C(N)=O)C(C)C` [compound 384] (H-DNPSLSIDVPLLLLRTLLELEKTQSQRERAEQNARIFARV-NH2; N-terminus assumed): the EC50 was 7.1 nM in test [1] and no less than 1000 nM in test [2].

As to “HHHHHHIVLSLDVPIGLLQILLEQARARAAREQATTNARILARN-NH2 [compound 296]”, the EC50 in test [1] was 6.66 nM; in test [2] it was no less than 100 nM.

Consider “NDDPPISIDLPFFLLRNMIEMARIENEREQAGLNAKYLAEV-NH2 [compound 264]”, for which the concentration for a half-maximal effect (EC50) is no less than 100 nM in test [1] and 704 nM in test [2].

On to “NDDPPISIDLPFHLLRNMIEMARIENEREQAGLNAKYLAEV-NH2 [compound 262]”, for which the 50% effective concentration (EC50) in test [1] was no less than 100 nM; in test [2], 408 nM.

On to “NDDPPISIDLPFYLLRNMIEMARIENEREQAGLNAKYLAEV-NH2 [compound 261]”, for which the concentration giving a half-maximal response (EC50) was no less than 100 nM in test [1] and 274 nM in test [2].

With “NDDPPISIDLPLFLLRNMIEMARIENEREQAGLNAKYLAEV-NH2 [compound 257]”, the concentration for a half-maximal effect (EC50) in test [1] is no less than 100 nM; in test [2], 745 nM.

For “NDDPPISIDLPLHLLRNMIEMARIENEREQAGLNAKYLAEV-NH2 [compound 259]”, the EC50 in test [1] was no less than 100 nM; in test [2], 820 nM.

For the compound “SQEPPISLDLTFHLLREVLEQARARAAREQATTNARILARV-NH2 [compound 157]”, the EC50 is 42 nM in test [1] and no less than 100 nM in test [2].
